TGI and GI50 data for 6 compounds are collected here from PubChem BioAssay (NCI).

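1) Cells in 96-well plates. 2) Compound, 48 h, 5 concentrations. 3) Linear interpolation between surrounding doses. 4) Unreached endpoint = highest concentration. The concentration for 50% growth inhibition is given as GI50. TGI denotes the concentration required for complete inhibition of growth.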

Some test systems named below: SF-539 CNS; PC-3 prostate; OVCAR-4 ovarian; COLO 205 colon; KM12 colon; SK-OV-3 ovarian; K-562 leukemia; NCI-H23 lung; SF-295 CNS; A549 NSCLC.
Common to all, as to test: growth of human tumour cells (NCI), 48 h

For `CCCCCCCCCC/C=C/CC(=O)SCCNC(=O)CCNC(=O)[C@@H](O)C(C)(C)COP(=O)(O)OP(=O)(O)OCC1OC(n2cnc3c(N)ncnc32)C(O)C1OP(=O)(O)O` (stereo not given in full), the TGI in the assay on SF-539 CNS, in the assay on PC-3 prostate, in the assay with OVCAR-4 ovarian, in the assay with COLO 205 colon, in the assay with KM12 colon and in the assay on SK-OV-3 ovarian was > 10 µM in each case. Further, the TGI in the assay with K-562 leukemia, in the assay with NCI-H23 lung, in the assay on SF-295 CNS and in the assay with A549 NSCLC was > 10 µM in each case.
Consider `Cc1c2cccnc2c(C)c2c1c1cc(CO)ccc1n2C`, for which the GI50 with SF-539 CNS is 2.49 µM; with PC-3 prostate it was 2.67 µM; in the assay with OVCAR-4 ovarian, 2.82 µM; in the assay with COLO 205 colon it was 1.51 µM; in the assay with KM12 colon, 2.33 µM; in the assay on SK-OV-3 ovarian it was 2.14 µM. Moreover, the GI50 in the assay with K-562 leukemia was 1.66 µM; with NCI-H23 lung it was 2.31 µM; in the assay on SF-295 CNS it was 1.74 µM; with A549 NSCLC, 2.65 µM. In addition, the TGI in the assay on SF-539 CNS was determined as 11.7 µM; in the assay with PC-3 prostate, 33 µM; in the assay with OVCAR-4 ovarian it was 10.5 µM; with COLO 205 colon it was 6.11 µM; in the assay on KM12 colon it was 17 µM; with SK-OV-3 ovarian, 6.95 µM. Moreover, the TGI stood at 20.6 µM in the assay on K-562 leukemia, 16 µM with NCI-H23 lung, 10.1 µM with SF-295 CNS and 11.7 µM in the assay with A549 NSCLC.
On to `O=S(=O)([O-])c1ccc2c(c1)-c1nc-2nc2[n-]c(nc3nc(nc4[n-]c(n1)c1ccc(S(=O)(=O)[O-])cc41)-c1cc(S(=O)(=O)[O-])ccc1-3)c1ccc(S(=O)(=O)[O-])cc21.[Cu+2].[Na+]`, for which the GI50 is > 100 µM in the assay on SF-539 CNS; 9.44 µM in the assay on PC-3 prostate; 5.31 µM with OVCAR-4 ovarian; 6.96 µM in the assay with COLO 205 colon; 8.36 µM in the assay with KM12 colon; 97.9 µM with SK-OV-3 ovarian. Besides, the GI50 is 0.749 µM in the assay on K-562 leukemia, 98.4 µM in the assay on NCI-H23 lung, 98.4 µM with SF-295 CNS and 24.1 µM with A549 NSCLC. Moreover, the TGI is > 100 µM with SF-539 CNS; > 100 µM with PC-3 prostate; > 80.4 µM in the assay with OVCAR-4 ovarian; > 62 µM with COLO 205 colon; > 76.8 µM with KM12 colon; > 100 µM in the assay on SK-OV-3 ovarian. For the same compound, the TGI in the assay on K-562 leukemia is > 50.3 µM; in the assay on NCI-H23 lung it was > 100 µM; in the assay with SF-295 CNS, > 100 µM; in the assay with A549 NSCLC, > 100 µM.
With `Cc1nnc(S(=O)(=O)c2ccc(N=Nc3c(N)nc(N)nc3N)cc2)s1`, the TGI in the assay on SF-539 CNS, in the assay on PC-3 prostate, with OVCAR-4 ovarian, with COLO 205 colon, in the assay with KM12 colon and in the assay with SK-OV-3 ovarian was > 100 µM throughout. In addition, the TGI in the assay with K-562 leukemia, with NCI-H23 lung, with SF-295 CNS and with A549 NSCLC was > 100 µM each time.
Turning to `CC(C)(C)C(=O)OCOP(=O)(OCOC(=O)C(C)(C)C)C1CCCN(O)C1=O` (stereo not given), the GI50 is 1.52 µM in the assay on SF-539 CNS; 2.02 µM in the assay on PC-3 prostate; 0.508 µM with OVCAR-4 ovarian; 0.6 µM in the assay with COLO 205 colon; 0.443 µM in the assay on KM12 colon; 0.508 µM with SK-OV-3 ovarian. For the same compound, the GI50 was 0.393 µM in the assay with K-562 leukemia, 0.564 µM with NCI-H23 lung, 3.9 µM in the assay with SF-295 CNS and 0.637 µM in the assay on A549 NSCLC. Besides, the TGI in the assay with SF-539 CNS is 11.8 µM; in the assay on PC-3 prostate, > 100 µM; in the assay with OVCAR-4 ovarian, 59.7 µM; in the assay with COLO 205 colon, 3.64 µM; with KM12 colon, 13.3 µM; in the assay on SK-OV-3 ovarian, 8.81 µM. Also, the TGI with K-562 leukemia was > 100 µM; in the assay on NCI-H23 lung, 3.4 µM; with SF-295 CNS it was > 100 µM; with A549 NSCLC it was > 100 µM.
As to `CCN1CCN(c2ccc(Nc3cc(N(C)C(=O)Nc4c(Cl)c(OC)cc(OC)c4Cl)ncn3)cc2)CC1`, the GI50 in the assay on SF-539 CNS is 3.11 µM; with PC-3 prostate it was 3.52 µM; in the assay with OVCAR-4 ovarian, 0.851 µM; in the assay with COLO 205 colon it was 1.93 µM; in the assay on KM12 colon, 4.47 µM; in the assay with SK-OV-3 ovarian, 8.02 µM. For the same compound, the GI50 is 2.09 µM in the assay on K-562 leukemia, 4.35 µM with NCI-H23 lung, 11.4 µM in the assay on SF-295 CNS and 3.13 µM in the assay on A549 NSCLC. Besides, the TGI was 7.99 µM in the assay with SF-539 CNS; 19.2 µM with PC-3 prostate; 12.1 µM in the assay on OVCAR-4 ovarian; 3.47 µM with COLO 205 colon; 18.7 µM in the assay with KM12 colon; 20.8 µM in the assay with SK-OV-3 ovarian. Further, the TGI in the assay on K-562 leukemia is 5.5 µM; in the assay on NCI-H23 lung it was 44.6 µM; in the assay with SF-295 CNS, 25.9 µM; with A549 NSCLC it was 12.1 µM.
